Here are results for 5 compounds from patent publication EP0907648B1, “QUINOLONE CARBOXYLIC ACIDS SUBSTITUTED BY 7-(3-VINYL-1,4-PIPERAZINE-1-YL)” (BAYER AG, priority 1996, dated 1998).

Values after ≈ are worked out from the molar mass of the structure shown. Counter-ions that a name gives are not always drawn. Like-named read-outs stand apart in the source and are kept apart here.

In one test the test system is E. coli. The experiment in a line: MIC (MHK), agar serial dilution on Iso-Sensitest agar. The following applies: for MIC: Escherichia coli, 20 h, read-out: MHK-Werte. The format is cell-based. From the text: (§1) Die minimalen Hemmkonzentrationen (MHK) der erfindungsgemäßen Verbindungen wurden per Reihenverdünnungsverfahren auf Iso-Sensitest Agar (Oxoid) bestimmt. Für jede Prüfsubstanz wurde eine Reihe von Agarplatten hergestellt, die bei jeweils doppelter Verdünnung abfallende Konzentrationen des Wirkstoffs enthielten. Die Agarplatten wurden mit einem Multipoint-Inokulator (Denley) beimpft. Zum Beimpfen wurden Übernachtkulturen der Erreger verwandt, die zuvor so verdünnt wurden, daß jeder Impfpunkt ca. 10^4 koloniebildende Partikel enthielt. Die beimpften Agarplatten wurden bei 37°C bebrütet, und das Keimwachstum wurde nach ca. 20 Stunden abgelesen. Der MHK-Wert (µg/ml) gibt die niedrigste Wirkstoffkonzentration an, bei der mit bloßem Auge kein Wachstum zu erkennen war. Die Erfassung der MHK-Werte für Mycoplasmen erfolgte mikroskopisch nach einer Inkubationszeit von 5 bis 7 Tagen.

A further test concerns Salmonella spp. Described as above. The format is cell-based. The settings on record: for MIC: 20 h, Salmonella spp. S 9656, read-out: MHK-Werte; for MHK-Werte: Salmonella spp. S 9657.
Text: as §1

The test system of another test is Staph. spp. The test is described as above. The format is cell-based. The settings on record: for MIC: 20 h, read-out: MHK-Werte.
For the next test, the system named is Bordetella. The test is described as above. The class given is cell-based. The settings on record: Bordetella 9213 GE; for MIC: 20 h, read-out: MHK-Werte.
Another test relates to B. bronchiseptica. The description is as above. The class given is cell-based. The following applies: for MIC: Bordetella bronchiseptica, 20 h, B. bronchiseptica B 9601, read-out: MHK-Werte.
Another test concerns Pseudomonas spp. The test is described as above. The format is cell-based. The following applies: 20 h; Pseudomonas spp. P 9510; read-out: MHK-Werte.
The test system of another test is S. agalactiae. The description is as above. The class given is cell-based.
Another test relates to S. suis. Described as above. The format is cell-based. The following applies: Streptococcus suis, 20 h, read-out: MHK-Werte.
For the next test, the system named is M. agalactiae PG 2. Put plainly: MIC (MHK) against mycoplasmas, microscopic reading. The settings on record: Mycoplasmopsis agalactiae, PG2, incubation 5 to 7 days, read-out: MHK-Werte gegen Mycoplasmen. The class given is cell-based.
In the next test the test system is M. bovis "Donetta". The experiment in a line: microbe, parasite or virus in culture. The class given is cell-based. The settings on record: read-out: MHK-Werte gegen Mycoplasmen.
A further test has as its system M. bovirhinis PG 43. Put plainly: MIC (MHK) against mycoplasmas, microscopic reading. The format is cell-based. The following applies: incubation 5 to 7 days, read-out: MHK-Werte gegen Mycoplasmen.
A further test has as its system M. gallisepticum PG 31. Put plainly: MIC (MHK) against mycoplasmas, microscopic reading. The settings on record: Mycoplasmoides gallisepticum, PG31, incubation 5 to 7 days, read-out: MHK-Werte gegen Mycoplasmen. The class given is cell-based.
The next test has as its system M. iowae 695. The experiment in a line: MIC (MHK) against mycoplasmas, microscopic reading. The following applies: incubation 5 to 7 days, read-out: MHK-Werte gegen Mycoplasmen. The format is cell-based.
Test [1] relates to E.-coli-Stammes 6200 Serovar 078. The experiment in a line: In vivo antibacterial efficacy in E. coli infected chicks (mortality). Also on record: species or system Hühner-Küken. The settings on record: Escherichia coli; chicks infected intrathoracally, oral dose immediately after infection, mortality 48 h after infection. From the text:
Die antibakterielle Wirksamkeit der erfindungsgemäßen Verbindung in-vivo wurde folgendermaßen bestimmt. Zwei bis […] (Lohmann-Hybriden, Fa. Lohmann, Cuxhaven) wurden mit 5 x 10^6 KBE/ml des E.-coli-Stammes 6200 Serovar 078 (Prof. Hinz, Hannover) intrathorakal infiziert. Unmittelbar nach der Infektion erhielten jeweils Gruppen von 10 bis 20 Küken den Wirkstoff oral appliziert. Ausgetestet wurden 6 Verdünnungen einer geometrischen Verdünnungsreihe. Die Auswertung erfolgte durch […] 48 Stunden nach der Infektion. Die Wirksamkeit der betreffenden Verbindung wird als ED90 in mg/kg angegeben.

In the case of `C=CC1CN(c2c(F)cc3c(=O)c(C(=O)O)cn(C4CC4)c3c2Cl)CCN1` (centres unmarked) [Bsp. 1, 8-Chlor-1-cyclopropyl-6-fluor-1,4-dihydro-4-oxo-7-(3-vinyl-1,4-piperazin-1-yl)-3-chinolincarbonsäure], the MIC with E. coli (E. coli 21 Bui) is 8 µg/mL (≈ 20.4 µM); in the test with E. coli (E. coli 3614 GE), 4 µg/mL (≈ 10.2 µM); with E. coli (E. coli 9430 LH), 16 µg/mL (≈ 40.8 µM); in the test on E. coli (E. coli Ec 9675), 1 µg/mL (≈ 2.55 µM); with E. coli (E. coli G 293 LH) it was 8 µg/mL (≈ 20.4 µM); with Salmonella spp., 0.5 µg/mL (≈ 1.28 µM). Moreover, the MIC was found to be 0.06 µg/mL (≈ 0.153 µM) in the test on Staph. spp. (Staph. spp. 2706); 1 µg/mL (≈ 2.55 µM) with Staph. spp. (Staph. spp. 3781 GE); 1 µg/mL (≈ 2.55 µM) with Staph. spp. (Staph. spp. B 5520 TGD); 1 µg/mL (≈ 2.55 µM) with Staph. spp. (Staph. spp. G 600 LH); 8 µg/mL (≈ 20.4 µM) with Bordetella; 0.25 µg/mL (≈ 0.638 µM) with B. bronchiseptica. Besides, the MIC in the test on Pseudomonas spp. is 0.5 µg/mL (≈ 1.28 µM); with S. agalactiae (Streptococcus agalactiae, 20 h, S. agalactiae Scc 9513, read-out: MHK-Werte), 0.5 µg/mL (≈ 1.28 µM); in the test on S. suis (S. suis Scc 9588), 0.06 µg/mL (≈ 0.153 µM); with S. suis (S. suis Scc 9591) it was 0.03 µg/mL (≈ 0.0766 µM); in the test on S. suis (S. suis Scc 9592) it was 0.25 µg/mL (≈ 0.638 µM); in the test on S. suis (S. suis Scc 9595), 0.03 µg/mL (≈ 0.0766 µM). Moreover, the MIC in the test on S. suis (S. suis Scc 9603) was 0.03 µg/mL (≈ 0.0766 µM); in the test on M. agalactiae PG 2, 0.06 µg/mL (≈ 0.153 µM); in the test with M. bovis "Donetta", 0.06 µg/mL (≈ 0.153 µM); in the test on M. bovirhinis PG 43 it was 0.06 µg/mL (≈ 0.153 µM); in the test with M. gallisepticum PG 31, 0.03 µg/mL (≈ 0.0766 µM); in the test on M. iowae 695, 0.03 µg/mL (≈ 0.0766 µM). Moreover, the MHK-Werte in the test with Salmonella spp. was 0,5 µl/ml; in the test with B. bronchiseptica (B. bronchiseptica B 9610), 0,25 µl/ml; in the test on B. bronchiseptica (B. bronchiseptica B 9613), 0,25 µl/ml; in the test with B. bronchiseptica (B. bronchiseptica B 9618), 0,25 µl/ml; in the test on S. agalactiae (S. agalactiae Scc 9514), 0,5 µl/ml; in the test on S. agalactiae (S. agalactiae Scc 9515), 0,5 µl/ml. Further, the MHK-Werte in the test on S. agalactiae (S. agalactiae Scc 9520) and in the test with S. agalactiae (S. agalactiae Scc 9524) was 0,5 µl/ml throughout. The ED90 in test [1] turned out to be 1.25 mg/kg.
For the compound `C=CC1CN(c2c(F)cc3c(=O)c(C(=O)O)cn(C4CC4)c3c2Cl)CCN1/C=C/C(=O)OCC` (centres unmarked) [Bsp. 3, 8-Chlor-1-cyclopropyl-7-[4-(2-ethoxycarbonyl-vinyl)-3-vinyl-1,4-piperazin-1-yl]-6-fluor-1,4-dihydro-4-oxo-3-chinolincarbonsäure], the MIC turned out to be 8 µg/mL (≈ 16.3 µM) in the test on E. coli (E. coli 21 Bui); 8 µg/mL (≈ 16.3 µM) in the test on E. coli (E. coli 3614 GE); 32 µg/mL (≈ 65.3 µM) with E. coli (E. coli 9430 LH); 16 µg/mL (≈ 32.7 µM) with E. coli (E. coli G 293 LH); 0.25 µg/mL (≈ 0.51 µM) in the test with Staph. spp. (Staph. spp. 2706); 2 µg/mL (≈ 4.08 µM) in the test on Staph. spp. (Staph. spp. 3781 GE). Besides, the figures for the MIC with Staph. spp. (Staph. spp. B 5520 TGD), in the test on Staph. spp. (Staph. spp. G 600 LH) and in the test with Bordetella were 2 µg/mL (≈ 4.08 µM), 2 µg/mL (≈ 4.08 µM) and 16 µg/mL (≈ 32.7 µM), respectively.
Regarding `C=CC1CN(c2c(F)c(N)c3c(=O)c(C(=O)O)cn(C4CC4)c3c2F)CCN1` (centres unmarked) [Bsp. 4, 5-Amino-1-cyclopropyl-6,8-difluor-1,4-dihydro-4-oxo-7-(3-vinyl-1,4-piperazin-1-yl)-chinolincarbonsäure], the MIC came to 16 µg/mL (≈ 41 µM) with E. coli (E. coli 21 Bui); 16 µg/mL (≈ 41 µM) with E. coli (E. coli 3614 GE); 64 µg/mL (≈ 164 µM) in the test with E. coli (E. coli 9430 LH); 0.5 µg/mL (≈ 1.28 µM) in the test with E. coli (E. coli Ec 9675); 32 µg/mL (≈ 82 µM) in the test on E. coli (E. coli G 293 LH); 0.5 µg/mL (≈ 1.28 µM) in the test on Salmonella spp.. Also, the MIC with Staph. spp. (Staph. spp. 3781 GE) was determined as 4 µg/mL (≈ 10.2 µM); in the test with Staph. spp. (Staph. spp. B 5520 TGD) it was 4 µg/mL (≈ 10.2 µM); in the test on Staph. spp. (Staph. spp. G 600 LH), 4 µg/mL (≈ 10.2 µM); with Staph. spp. (Staph. spp. ST 9640), 0.06 µg/mL (≈ 0.154 µM); in the test with B. bronchiseptica it was 0.25 µg/mL (≈ 0.64 µM); in the test on M. agalactiae PG 2, 0.03 µg/mL (≈ 0.0768 µM). Further, the MIC in the test with M. bovirhinis PG 43 came to 0.25 µg/mL (≈ 0.64 µM); in the test with M. gallisepticum PG 31, 0.03 µg/mL (≈ 0.0768 µM); with M. iowae 695 it was 0.06 µg/mL (≈ 0.154 µM). The MHK-Werte in the test with Salmonella spp. is reported as 0,5 µl/ml; in the test with B. bronchiseptica (B. bronchiseptica B 9610) it was 0,25 µl/ml; with B. bronchiseptica (B. bronchiseptica B 9613) it was 0,25 µl/ml; in the test on B. bronchiseptica (B. bronchiseptica B 9618), 0,25 µl/ml.
For `C=CC1CN(c2c(F)cc3c(=O)c(C(=O)O)cn(C4CC4)c3c2Cl)CCN1` (centres unmarked) [Bsp. 2, 8-Chlor-1-cyclopropyl-6-fluor-1,4-dihydro-4-oxo-7-(3-vinyl-1,4-piperazin-1-yl)-3-chinolincarbonsäure-Hydrochlorid], the MHK-Werte came out at 4 µl/ml in the test with E. coli (E. coli 21 Bui); 4 µl/ml in the test on E. coli (E. coli 3614 GE); 16 µl/ml in the test with E. coli (E. coli 9430 LH); 4 µl/ml in the test with E. coli (E. coli G 293 LH); 1 µl/ml in the test on Staph. spp. (Staph. spp. 3781 GE); 8 µl/ml in the test on Bordetella.
In the case of `C=CC1CN(c2cc3c(cc2F)c(=O)c(C(=O)O)cn3C2CC2)CCN1` (centres unmarked) [Bsp. 102 aus EP-A 230 053, 1-Cyclopropyl-6-fluor-1,4-dihydro-4-oxo-7-(3-vinyl-1,4-piperazin-1-yl)-3-chinoloncarbonsäure, reference compound], the ED90 in [1] is 5 to 10 mg/kg.
